Tests used:
[1] = biological target: T1, A701M mutant full-length ORF2p (FMDD) (Homo sapiens, UniProt O00370, A701M); test: Gel-based RT assay of full-length ORF2p A701M mutant (FMDD); format: biochemical
T1 construct: His8 (C); HERV-K protease + TEV protease + TEV site (self-processed; leaves one Gly) (N, cleaved yes); made in house; host or cells: SF9 insect cells (MultiBac)
From the text: (§1) Crystal structure of AZT triphosphate bound to HIV-1 RT (PDB 5I42) versus model of AZT triphosphate bound to L1 ORF2p. […] Left, HIV-1 RT in the NNRTI-unbound conformation (PDB 7LRI). Residues involved in NNRTI-resistance are highlighted; space occupied by HIV-1-bound nevirapine is shadowed (PDB 4PUO). Right, equivalent region in L1 ORF2p. The long α-helix corresponds to residues 572–588 in ORF2p. […] Data in a, b and e are representative of two independent experiments and shown as mean ± s.d. […]
(§2) server155 and manually checked with cutoff of 2.5-3.3 Å for polar interactions and 3.7 Å for van der Waals […]
(§3) ORF2p reverse transcriptase activity assays
(§4) Microwell assays were performed using the reverse transcriptase assay, colorimetric (Roche) according to the manufacturer’s instructions, with the supplied poly(A) template and oligo(dT) 15 primer. ORF2p fractions were diluted for assay in lysis/binding buffer (50 mM Tris, 80 mM potassium chloride, 2.5 mM DTT, 0.75 mM EDTA, and 0.5% Triton X- 100; pH 7.8) and incorporation of digoxigenin- and biotin- labeled dUTP into DNA was measured by absorbance at 405 nm as compared to a 490 nm reference. […] 3 μL reaction samples were subjected to denaturing 8 M urea 20% PAGE to resolve products followed by signal quantification (ImageQuant 5.2, GE Healthcare Bio- Sciences) through phosphorimaging (Amersham Typhoon 5, Cytivia). […]

[2] = biological target: T2, ORF2p core (Homo sapiens, UniProt O00370); test: Homogeneous time-resolved fluorescence (HTRF) ORF2p RT assay; format: biochemical; details: HTRF; NRTI NTPs
T2 construct: His6-MBP-3C-ORF2p (238-1061, ORFeus-Hs) in pET41; His6-MBP (3C protease site) (N, cleaved yes); made in house; host or cells: E. coli
Procedure: (§5) ORF2p core was preincubated with a template:primer containing a single site for the incorporation of a given nucleotide analogue. The primer/template sequence shown in the panel a illustrates the case of single incorporation of 3TC, with a single G for incorporation; the incoming template sequence for entecavir and carbovir has a single C, and for d4T a single A, each at position labeled “N”. Reactions were incubated for one minute at 37 °C with a 100 nM dNTP mixture and increasing concentrations of listed inhibitors. IC50 index, fold = IC50 (drug, µM) ÷ [dNTP] […] Fluorescein-labeled dNTPs (here, uracil-TP) are incorporated by ORF2p into a biotinylated primer, here shown against a poly(A) template. Detection is then achieved using FRET with a terbium cryptate labeled streptavidin, and the time-resolved technique and time-delayed emission from terbium cryptate reduces background from other fluorescent chemicals in the mix. In the presence of ORF2p RT inhibitors (RTIs), base incorporation is stopped and FRET signal is lost. […]
(§6) ORF2p reverse transcriptase activity assays […]
For HTRF RT assays157, 25 nM ORF2p core and 12. 5 nM t em plat e: primer was incubated at 25°C for 60 minutes
with 10 nM of fluorescein- 12- dUTP (Thermo), 1 µM each (dATP,dCTP,dGTP), and test compound in a 15 µL
reaction with buffer containing 50 mM Tris-HCl, 50 mM KCl, 10 mM MgCl2, 10 mM DTT, pH 8.1, and 1% final

[3] = tested on: L1 retrotransposition reporter in HeLa cells; test: LINE-1 dual luciferase retrotransposition assay in HeLa cells; format: cell-based, human; details: HeLa cells, stable dual luciferase L1 reporter, normalized to cell viability, n = 3 wells
[4] = biological target: T2, ORF2p core; test: Gel-based L1 RT assay, ORF2p core, inhibition by NRTI triphosphates; format: biochemical; details: 100 nM dNTP mixture
Procedure: as §5, §6
Gel-based RT activity assays consisted of pr e-incubating RTs with annealed DNA/RNA, DNA/DNA, or RNA/RNA 5’- end- radiolabeled or 5’-end-Cy5- o r FAM-labeled template:primer duplex or hybrid duplex and, where indicated, inhibitor in the presence of 0.1- 1 μ M dNTP or NTP mixture, 0.25 mM EDTA, 50 mM NaCl, and 25 mM Tris (pH 8) for 10 min at 37°C. Labeled nucleic acids were purchased from Dharmacon or IDT. Unless otherwise indicated, 15 μL reactions were initiated by the addition of 1.3 mM MgCl2, incubated for 10 min at 37 °C, and then stopped by the addition of 15 μL of formamide/EDTA (25 mM) mixture and incubated at 95 °C for 10 min. 3 μL reaction samples were subjected to denaturing 8 M urea 20% PAGE to resolve products followed by signal quantification (ImageQuant 5.2, GE Healthcare Bio- Sciences) through phosphorimaging (Amersham Typhoon 5, Cytivia). Scanned gel images are […]
minor products; original images are provided in an Extended Data file. […]

[5] = biological target: T3, Full-length ORF2p WT (FADD) (Homo sapiens, UniProt O00370); test: Gel-based RT assay of full-length ORF2p WT (FADD); format: biochemical; details: single-nucleotide-resolution RT assays
T3 construct: gel-based RT assay of full-length ORF2p WT (FADD) or HIV-like (FMDD); His8 (C); HERV-K protease + TEV protease + TEV site (self-processed; leaves one Gly) (N, cleaved yes); made in house; host or cells: SF9 insect cells (MultiBac)
From the text: as §1, §2, §3, §4

Structure (SMILES): Nc1ccn([C@@H]2CS[C@H](CO)O2)c(=O)n1 [3TC, lamivudine]
- fold more potent in inhibiting A701M mutant full-length ORF2p (FMDD) than wild type (FADD) [1]: approximately 15 fold
- IC50 [2]: 200 to 750 nM
- IC50 [3]: 900 nM
- IC50 ([3]; Homo sapiens, HeLa): 1000 to 5000 nM
- IC50 index, fold = IC50 (drug, µM) ÷ [dNTP] (natural counterpart, 0.1 µM) [4]: 56 fold
- IC50 ([4]; NTP forms of NRTIs, one minute at 37 °C): 5 to 7 µM
- inhibition of full-length ORF2p compared with ORF2p core [5]: similarly inhibited

Source: PMC10830420, “Structures, functions and adaptations of the human LINE-1 ORF2 protein” (Nature, 2023)
